Common to all, as to assay type: biochemical
For one experiment, the system named is iNicSnFR11. The experiment can be described thus: Fluorescence dose-response relations of nicotinic drugs at purified iNicSnFR11. To be noted: purified iNicSnFR11 100 nM, 3×PBS pH 7.40, Hill fit.
The test system of experiment [1] is iNicSnFR12. The experiment can be described thus: Fluorescence dose-response relations of nicotinic drugs at purified iNicSnFR12.
Experiment [2] deals with iNicSnFR12. The settings on record: read-out: EC50, μM (Figure 1B, 1C, purified sensors); n = 3.
A further experiment deals with iNicSnFR12-S467R. Description: Nicotine-induced fluorescence increase of purified iNicSnFR12-S467R, Hill fit. The settings on record: read-out: EC50 (nicotine-induced fluorescence, iNicSnFR12-S467R); SEM, n = 3.

A value given as a limit tells only on which side of the number the result lay.

In the case of `C[N+](C)(C)CCO` [choline], the EC50 was approximately 170 µM with iNicSnFR11 and not below 100 µM in the experiment on iNicSnFR12 [2]. Moreover, the “expected activation at iNicSnFR12” value with iNicSnFR12 [1] ([choline] 1 μM as in 10% rat serum) is listed as “at most 1%”; in the experiment with iNicSnFR12 [1] ([choline] 2.5 μM as in 25% human serum) it was not above 2.5%.

On to `CN1CCC[C@H]1c1cccnc1` [nicotine], for which the EC50 with iNicSnFR12-S467R was determined as 25.6 µM.

The record behind these values is PMC9882114 (bioRxiv, 2024).
